Usually solubility (thermodynamic) stands for solubility found after equilibrating the solid with the medium.

We go through three compounds from patent US20260355151A1, “SPIROCYCLIC DERIVATIVE-CONTAINING SALT OR CRYSTAL FORM, AND PREPARATION METHOD THEREFOR AND USE THEREOF” (SHUJING BIOPHARMA CO., LTD, priority 2022, published 2026).

Counter-ions that a name gives are not always drawn. Like-named read-outs stand apart in the source and are kept apart here.

Data set [1] in a line: Equilibrium solubility in water for 24 hours. The format is physicochemical. Particulars: deionized water, 37 °C. As for the experimental part: Investigating the equilibrium solubility of each hydrochloride crystal form of Compound A in water for 24 hours.
Excess samples of hydrochloride crystal form I and hydrochloride crystal form II of Compound A were weighed and placed in different 10 mL centrifuge tubes, and 1 mL of deionized water was added, sealed with a parafilm, shaking at a constant temperature of 37 °C and 150 rpm for 24 hours; after passing through a 0.45 μm organic filter, the sample was diluted and injected for HPLC analysis.

A short description of data set [2]: Solid stability experiment (high temperature, high humidity, light). The format is physicochemical. As to conditions: for chemical stability: high temperature, high humidity, or illumination, conclusion in words; for degraded at 240 h / degraded at 480 h / degraded at 2040 h: solid, read-out: Increase of total impurities; for degraded at 240 h: day 10; for degraded at 480 h: day 20; for degraded at 2040 h: day 85. As to the method: Investigating the chemical stability of each hydrochloride crystal form of Compound A under high temperature, high humidity, and light conditions.
Appropriate amounts of hydrochloride crystal form I and hydrochloride crystal form II of Compound A were weighed and placed in weighing dishes respectively; three samples for each salt were prepared, and placed respectively in a oven at 60 °C, a drying dish with RH 92.5%, and a stability test chamber with an illumination condition of 5000 lx for 85 days. After mixing all samples evenly at day 0, day 10, day 20, and day 85, samples were taken and dissolved in acetonitrile and water, and the content and impurity changes were detected by HPLC-related substance detection method.

A further data set addresses T1, TAAR1 receptor (Homo sapiens, UniProt Q96RJ0).
T1 sequence (Q96RJ0 1-339): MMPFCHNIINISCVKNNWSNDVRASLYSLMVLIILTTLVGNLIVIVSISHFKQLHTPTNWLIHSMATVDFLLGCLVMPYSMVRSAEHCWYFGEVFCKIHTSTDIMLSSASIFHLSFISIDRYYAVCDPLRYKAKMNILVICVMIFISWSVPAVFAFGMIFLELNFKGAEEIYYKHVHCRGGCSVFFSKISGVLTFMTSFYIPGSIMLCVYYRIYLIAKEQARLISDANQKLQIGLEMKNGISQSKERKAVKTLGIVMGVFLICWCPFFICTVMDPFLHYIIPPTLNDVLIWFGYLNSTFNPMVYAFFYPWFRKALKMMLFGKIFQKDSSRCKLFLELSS
The experiment in a line: TAAR1 receptor cAMP agonist test. It is filed as cell-based. Set-up: Emax: dose or concentration left out as unconfirmed. The source says:
The cAMP detection kit was purchased from Cisbio; the […] cell line stably expressing TAAR1 receptor was constructed by Shanghai Shujing Biotechnology Co., Ltd.; IBMX was purchased from Sigma; Phenethylamine (PEA); ProxiPlate-384 well plate was purchased from PerkinElmer; HBSS was purchased from Thermo Fisher Scientific Company.

For a further data set, the target named is T2, 5-HT1A receptor (Homo sapiens, UniProt P08908).
T2 sequence (P08908 1-422): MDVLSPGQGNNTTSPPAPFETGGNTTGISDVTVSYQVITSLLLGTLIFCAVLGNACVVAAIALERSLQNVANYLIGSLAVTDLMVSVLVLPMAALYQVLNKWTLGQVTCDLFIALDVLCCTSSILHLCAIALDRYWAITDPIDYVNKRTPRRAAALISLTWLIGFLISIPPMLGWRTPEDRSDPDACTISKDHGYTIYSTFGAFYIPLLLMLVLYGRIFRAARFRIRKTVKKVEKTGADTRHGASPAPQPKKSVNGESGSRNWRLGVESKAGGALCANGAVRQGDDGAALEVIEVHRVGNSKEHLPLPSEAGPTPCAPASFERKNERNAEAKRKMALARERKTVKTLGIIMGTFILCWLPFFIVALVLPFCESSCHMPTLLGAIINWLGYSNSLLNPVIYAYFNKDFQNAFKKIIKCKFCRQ
As to the kind of experiment: 5-HT1A receptor cAMP agonist test. The format is cell-based. The source says:
The cAMP detection kit was purchased from Cisbio; the HEK293 cell line stably expressing 5-HT1A receptor was constructed by Shanghai Shujing Biotechnology Co., Ltd.; Serotonin, Forskolin and IBMX were purchased from Sigma; ProxiPlate-384-well plates was purchased from PerkinElmer; HBSS was purchased from Thermo Fisher Scientific.
Activation rate (activity %)=(negative control ratio-compound ratio)/(negative control ratio-positive control ratio)×100%

Data set [3] deals with high spontaneous activity induced by MK-801 in mice. As to the kind of experiment: Inhibition of high spontaneous activity induced by MK-801 in mice. It is filed as in vivo, male C57Bl/6J mice. As for the experimental part:
Compounds to be tested: compounds in the examples of the present application, self-made.
(§1) Experimental animals: 18-22 g male C57Bl/6J mice, purchased from Shanghai Slack Experimental Animal Co., Ltd.
(§2) before the start of the experiment, animals were randomly grouped according to body weight.
before the experiment, the mice were first adapted to the experimental environment for at least 1 hour. That is, the animals were transferred from the breeding room to the laboratory and moved freely in the cage.
(§3) Drug preparation: taking the compound to be tested, adding pure water and performing ultrasonication.
(§4) The animals were randomly divided into blank group, model group, and administration group according to body weight, 9 mice/group, and the detailed administration information is shown in the following table:
(§5) T-30 min oral administration of compound: compound to be tested or solvent (pure water) was administered orally by gavage, and put into test box (test box size length*width*height=27*27*40 cm) immediately after administration, recording the spontaneous activity of the mice within 30 minutes.
The blank control group was injected with normal saline.
(§6) The activities of these animals (movement distance in the test box) were automatically recorded by the camera, and analyzed with ANY MAZE software, and the ED50 values were calculated.

Data set [4] deals with high spontaneous activity induced by PCP in mice. The experiment in a line: Inhibition of high spontaneous activity induced by PCP in mice. It is filed as in vivo, male C57Bl/6J mice.
From the text: Compounds to be tested: compounds of the examples of the present application, self-made.
Phencyclidine hydrochloride (PCP): purchased from Shanghai Yuansi Standard Science Technology Co., Ltd., specification: 5 g.
as §1, §2
before the experiment, the mice were first adapted to the experimental environment for at least 1 hour. That is, animals were transferred from the feeding room to the laboratory, and moved freely in the cage.
as §3, §4, §5
T0 min intraperitoneal injection of modeling drug: 30 minutes after compound administration, the mice were taken out, and administered with PCP (5 mg/kg) by intraperitoneal injection. The blank control group was injected with pure water. After the administration of PCP, the animals were immediately put back into the test box, and the test was continued for 60 minutes.
as §6

`CNC[C@@H]1OCC2(CC2)c2sccc21` [Hydrochloride crystal form I, (R)-1-(4′H,6′H-spiro[cyclopropane-1,7′-thieno[3,2-c]pyran]-4′-yl)-N-methylmethylamine]: in data set [1] (water), the solubility (thermodynamic) at 24 h was determined as 155 mg/mL. Further, the chemical stability entry in data set [2] is “good chemical stability”. Further, in data set [2] (High humidity of RH 92.5%), the degraded at 240 h is less than 0.1%, the degraded at 480 h was less than 0.1% and the degraded at 2040 h amounted to 0.199%. In data set [2] (Illumination of 5000 lx), the degraded at 240 h is less than 0.1%, the degraded at 480 h was less than 0.1% and the degraded at 2040 h was less than 0.1%.

For `CNC[C@@H]1OCC2(CC2)c2sccc21` [Hydrochloride crystal form II, (R)-1-(4′H,6′H-spiro[cyclopropane-1,7′-thieno[3,2-c]pyran]-4′-yl)-N-methylmethylamine], the Equilibrium solubility in data set [1] (1440 min) is 162.30 mg/mL. Also, the chemical stability result in data set [2] is “good chemical stability”. In addition, in data set [2] (High temperature of 60 °C), the degraded at 240 h was less than 0.1%, the degraded at 480 h was less than 0.1% and the degraded at 2040 h amounted to 0.133%.

As to `CNC[C@@H]1OCC2(CC2)c2sccc21` (single isomer, unassigned) [Compound A], the “agonist effect on the TAAR1 receptors” value on TAAR1 receptor (conclusion in words) is listed as “have an agonist effect on the TAAR1 receptors”. Moreover, the Emax at TAAR1 receptor (read-out: TAAR1 Max Act %) was determined as 95.5%. Moreover, on 5-HT1A receptor (activation rate, positive control Serotonin, final concentration 10^−6M, read-out: 5-HT1A Max Act %), the Emax at 1 µM amounted to 95.2%. Besides, the “agonistic effect on 5-HT1A receptors” value at 5-HT1A receptor (conclusion in words) is on record as “has agonistic effect on 5-HT1A receptors”. The “inhibitory effect compared to SEP-363856” value is “lower minimum effective dose and stronger inhibitory effect” in data set [3] (MK-801 model, conclusion in words); “lower minimum effective dose and stronger inhibitory effect” in data set [4] (PCP model, conclusion in words). In addition, the minimal effective dose in data set [3] (Mus musculus, po, 2.5 h, p.o. 30 min before MK-801 0.3 mg/kg i.p., movement distance, 150 min, read-out: MED (minimum effective dose)) came to 10 mg/kg; in data set [4] (Mus musculus, po, 1 h, p.o. 30 min before PCP 5 mg/kg i.p., movement distance, 60 min, read-out: MED (minimum effective dose)) it was 0.1 mg/kg. In addition, the “inhibition of high spontaneous activity induced by MK-801” value in data set [3] (p.o., conclusion in words) is “can significantly inhibit the high spontaneous activity induced by MK-801 in mice, and the inhibitory effect is gradually enhanced with the increase of the compound dosage, and there is a good dose-dependent relationship”. In addition, the “inhibition of high spontaneous activity induced by PCP” value in data set [4] (p.o., conclusion in words) is “can significantly inhibit the high spontaneous activity induced by PCP in mice, and the inhibitory effect is gradually enhanced with the increase of the compound dosage, and there is a good dose-dependent relationship”.
